In PubChem BioAssay AID248 (DTP/NCI, 2004):
Several values for one entry are separate records, joined by “and”; a condition that tells them apart may be missing. Identical values can stand only once. Inconclusive results and toxic doses are left out.

Test system: L1210 leukemia ip in BDF1 mice, survival T/C
Assay: NCI In Vivo Anticancer Drug Screen. Data for tumor model L1210 Leukemia (intraperitoneal) in B6D2F1 (BDF1) mice
Conditions: endpoint: mean survival time, higher = longer survival
Method in brief: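 Ratio derived from survival: compound-dosed mice over vehicle-dosed mice, all bearing a transplantable tumor.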

[1] = dose: 50.0 mg/kg/injection, schedule: Q01DX001 (ip), vehicle: saline
[2] = dose: 100.0 mg/kg/injection, schedule: Q01DX001 (ip), vehicle: saline
[3] = dose: 200.0 mg/kg/injection, schedule: Q01DX001 (ip), vehicle: saline
[4] = dose: 50.0 mg/kg/injection, schedule: Q01DX009 (ip), vehicle: saline with Tween-80
[5] = dose: 100.0 mg/kg/injection, schedule: Q01DX009 (ip), vehicle: saline with Tween-80
[6] = dose: 25.0 mg/kg/injection, schedule: Q01DX009 (ip), vehicle: Klucel (hydroxypropylcellulose) (HPC)
[7] = dose: 50.0 mg/kg/injection, schedule: Q01DX009 (ip), vehicle: Klucel (hydroxypropylcellulose) (HPC)
[8] = dose: 100.0 mg/kg/injection, schedule: Q01DX001 (ip), vehicle: saline with Tween-80
[9] = dose: 200.0 mg/kg/injection, schedule: Q01DX001 (ip), vehicle: saline with Tween-80
[10] = dose: 100.0 mg/kg/injection, schedule: Q04DX003 (ip), vehicle: saline
[11] = dose: 200.0 mg/kg/injection, schedule: Q04DX003 (ip), vehicle: saline
[12] = dose: 100.0 mg/kg/injection, schedule: Q04DX002 (ip), vehicle: Klucel (hydroxypropylcellulose) (HPC)
[13] = dose: 200.0 mg/kg/injection, schedule: Q04DX002 (ip), vehicle: Klucel (hydroxypropylcellulose) (HPC)
[14] = dose: 100.0 mg/kg/injection, schedule: Q01DX001 (ip), vehicle: Klucel (hydroxypropylcellulose) (HPC)
[15] = dose: 200.0 mg/kg/injection, schedule: Q01DX001 (ip), vehicle: Klucel (hydroxypropylcellulose) (HPC)
[16] = dose: 50.0 mg/kg/injection, schedule: Q01DX001 (ip), vehicle: Klucel (hydroxypropylcellulose) (HPC)

`O=C(N/N=C/c1ccc(Cl)c([N+](=O)[O-])c1)C(O)(c1ccccc1)c1ccccc1` was tested, and the T/C (dose: 100.0 mg/kg/injection, schedule: Q01DX001 (ip), vehicle: carboxymethylcellulose (CMC)) was 103 % of control, the T/C (dose: 200.0 mg/kg/injection, schedule: Q01DX001 (ip), vehicle: carboxymethylcellulose (CMC)) was 95 % of control and the T/C (dose: 400.0 mg/kg/injection, schedule: Q01DX001 (ip), vehicle: carboxymethylcellulose (CMC)) was 101 % of control.
In the case of `CCN(CC)C(=O)CCC(=O)O`, the T/C (dose: 100.0 mg/kg/injection, schedule: Q04DX002 (ip), vehicle: saline) is reported as 89 % of control, the T/C (dose: 200.0 mg/kg/injection, schedule: Q04DX002 (ip), vehicle: saline) is reported as 103 % of control and the T/C (dose: 400.0 mg/kg/injection, schedule: Q04DX002 (ip), vehicle: saline) is reported as 103 % of control.
With `O=Cc1ccc2cccnc2c1O` the T/C [1] was 114 % of control, the T/C [2] was 108 % of control and the T/C [3] was 93 % of control.
In the case of `COc1ccc(/C=C2\SC(=O)NC2=O)cc1`, the T/C (dose: 25.0 mg/kg/injection, schedule: Q01DX009 (ip), vehicle: saline with Tween-80) is reported as 91 % of control, the T/C [4] is reported as 104 % of control and the T/C [5] is reported as 100 % of control.
With `O=C(CCl)Nc1ccc2c(c1)-n1cccc1C2=O` the T/C [6] was 89 % of control, the T/C [7] was 91 % of control and the T/C (dose: 100.0 mg/kg/injection, schedule: Q01DX009 (ip), vehicle: Klucel (hydroxypropylcellulose) (HPC)) was 86 % of control. For the same compound, the T/C (dose: 100.0 mg/kg/injection, schedule: Q04DX003 (ip), vehicle: Klucel (hydroxypropylcellulose) (HPC)) was 93 % of control, the T/C (dose: 200.0 mg/kg/injection, schedule: Q04DX003 (ip), vehicle: Klucel (hydroxypropylcellulose) (HPC)) was 96 % of control and the T/C (dose: 400.0 mg/kg/injection, schedule: Q04DX003 (ip), vehicle: Klucel (hydroxypropylcellulose) (HPC)) was 100 % of control.
In the case of `CC(=O)NC1C(OC(=O)c2ccccc2)OC2COCOC2C1OC(=O)c1ccccc1` (stereo unspecified), the T/C [8] is reported as 90 % of control, the T/C [9] is reported as 97 % of control and the T/C (dose: 400.0 mg/kg/injection, schedule: Q01DX001 (ip), vehicle: saline with Tween-80) is reported as 92 % of control.
For `CN1CCCC1=O`, the T/C [4] was 91 % of control, the T/C [5] was 88 % of control and the T/C (dose: 200.0 mg/kg/injection, schedule: Q01DX009 (ip), vehicle: saline with Tween-80) was 102 % of control.
With `O=S(=O)(O)c1ccc(-c2ccc(S(=O)(=O)O)cc2)cc1` the T/C (dose: 88.8 mg/kg/injection, schedule: Q01DX Z (ip), vehicle: methylcellulose (MC)) was 98 % of control, the T/C (dose: 133.0 mg/kg/injection, schedule: Q01DX Z (ip), vehicle: methylcellulose (MC)) was 90 % of control and the T/C (dose: 200.0 mg/kg/injection, schedule: Q01DX Z (ip), vehicle: methylcellulose (MC)) was 86 % of control.
In the case of `Nc1cccc(COc2ccccc2)c1`, the T/C [10] is reported as 90 % of control and the T/C [11] is reported as 92 % of control.
With `O=C(O)c1c2c(nc3ccccc13)CCC(C(=O)O)C2` (stereo unspecified) the T/C [12] was 95 % of control, the T/C [13] was 95 % of control and the T/C (dose: 400.0 mg/kg/injection, schedule: Q04DX002 (ip), vehicle: Klucel (hydroxypropylcellulose) (HPC)) was 103 % of control.
For `Cc1nn(CCO)c(C)c1N=[N+]([O-])c1c(C)nn(CCO)c1C`, the T/C [6] was 93 % of control and 98 % of control, the T/C (dose: 30.0 mg/kg/injection, schedule: Q01DX009 (ip), vehicle: saline) was 95 % of control and the T/C [7] was 95 % of control and 107 % of control. The T/C (dose: 50.0 mg/kg/injection, schedule: Q04DX002 (ip), vehicle: Klucel (hydroxypropylcellulose) (HPC)) was 101 % of control, the T/C [12] was 96 % of control and the T/C [13] was 96 % of control.
In the case of `Nc1cccc(OCCCOc2ccccc2)c1`, the T/C [14] is reported as 94 % of control, the T/C [15] is reported as 97 % of control and the T/C (dose: 400.0 mg/kg/injection, schedule: Q01DX001 (ip), vehicle: Klucel (hydroxypropylcellulose) (HPC)) is reported as 94 % of control.
With `CCOC(=O)c1c[nH]c2ccc([N+](=O)[O-])cc2c1=O` the T/C (dose: 25.0 mg/kg/injection, schedule: Q01DX001 (ip), vehicle: Klucel (hydroxypropylcellulose) (HPC)) was 97 % of control, the T/C [16] was 97 % of control and the T/C [14] was 97 % of control.
With `O=C(Nc1ccc(C2=NCCN2)cc1)c1ccc(C(=O)Nc2ccc(C3=NCCN3)cc2)c(F)c1` the T/C (dose: 2.75 mg/kg/injection, schedule: Q01DX Z (ip), vehicle: carboxymethylcellulose (CMC)) was 119 % of control, the T/C (dose: 11.0 mg/kg/injection, schedule: Q01DX Z (ip), vehicle: carboxymethylcellulose (CMC)) was 122 % of control and the T/C (dose: 22.0 mg/kg/injection, schedule: Q01DX Z (ip), vehicle: carboxymethylcellulose (CMC)) was 227 % of control. The T/C (dose: 31.0 mg/kg/injection, schedule: Q01DX Z (oral), vehicle: carboxymethylcellulose (CMC)) was 100 % of control, the T/C (dose: 45.0 mg/kg/injection, schedule: Q01DX Z (ip), vehicle: carboxymethylcellulose (CMC)) was 291 % of control and the T/C (dose: 62.0 mg/kg/injection, schedule: Q01DX Z (oral), vehicle: carboxymethylcellulose (CMC)) was 101 % of control. For the same compound, the T/C (dose: 90.0 mg/kg/injection, schedule: Q01DX Z (ip), vehicle: carboxymethylcellulose (CMC)) was 167 % of control, the T/C (dose: 112.0 mg/kg/injection, schedule: Q01DX Z (oral), vehicle: carboxymethylcellulose (CMC)) was 105 % of control and the T/C (dose: 180.0 mg/kg/injection, schedule: Q01DX Z (ip), vehicle: carboxymethylcellulose (CMC)) was 94 % of control. For the same compound, the T/C (dose: 225.0 mg/kg/injection, schedule: Q01DX Z (oral), vehicle: carboxymethylcellulose (CMC)) was 103 % of control.
In the case of `CCCCCCCCCCCCCCCCCC(=O)OCC1OC(OC2(COC(=O)CCCCCCCCCCCCCCCCC)OC(COC(=O)CCCCCCCCCCCCCCCCC)C(OC(=O)CCCCCCCCCCCCCCCCC)C2OC(=O)CCCCCCCCCCCCCCCCC)C(OC(=O)CCCCCCCCCCCCCCCCC)C(OC(=O)CCCCCCCCCCCCCCCCC)C1OC(=O)CCCCCCCCCCCCCCCCC` (stereo unspecified), the T/C (dose: 100.0 mg/kg/injection, schedule: Q01DX001 (ip), vehicle: other) is reported as 93 % of control, the T/C (dose: 200.0 mg/kg/injection, schedule: Q01DX001 (ip), vehicle: other) is reported as 90 % of control and the T/C (dose: 400.0 mg/kg/injection, schedule: Q01DX001 (ip), vehicle: other) is reported as 97 % of control.
For `CC(=O)OCC(CO)(CO)CO`, the T/C (dose: 100.0 mg/kg/injection, schedule: Q01DX009 (ip), vehicle: saline) was 98 % of control, the T/C [10] was 97 % of control and the T/C (dose: 200.0 mg/kg/injection, schedule: Q01DX009 (ip), vehicle: saline) was 106 % of control. The T/C [11] was 105 % of control, the T/C (dose: 400.0 mg/kg/injection, schedule: Q01DX009 (ip), vehicle: saline) was 101 % of control and the T/C (dose: 400.0 mg/kg/injection, schedule: Q04DX003 (ip), vehicle: saline) was 92 % of control.
`Cc1ccc(C(=O)C=Nc2ccccc2C(=O)O)cc1` was tested, and the T/C (dose: 75.0 mg/kg/injection, schedule: Q04DX003 (ip), vehicle: Klucel (hydroxypropylcellulose) (HPC)) was 94 % of control, the T/C (dose: 150.0 mg/kg/injection, schedule: Q04DX003 (ip), vehicle: Klucel (hydroxypropylcellulose) (HPC)) was 95 % of control and the T/C (dose: 300.0 mg/kg/injection, schedule: Q04DX003 (ip), vehicle: Klucel (hydroxypropylcellulose) (HPC)) was 103 % of control.
`CCSCCC(=O)O` was tested, and the T/C [16] was 97 % of control, the T/C [14] was 92 % of control and the T/C [15] was 97 % of control.
In the case of `[O]=[Sb]([OH])([c]1ccccc1)[c]1ccccc1`, the T/C (dose: 10.0 mg/kg/injection, schedule: Q01DX001 (ip), vehicle: saline) is reported as 87 % of control and the T/C (dose: 20.0 mg/kg/injection, schedule: Q01DX001 (ip), vehicle: saline) is reported as 91 % of control.
In the case of `Cc1ccc2c(c1C)C(=O)C(=O)N2`, the T/C [1] is reported as 110 % of control, the T/C [2] is reported as 104 % of control and the T/C [3] is reported as 110 % of control. The T/C (dose: 400.0 mg/kg/injection, schedule: Q01DX001 (ip), vehicle: saline) was 104 % of control.
In the case of `O=C(C1=CCCC1)C1=CCCC1`, the T/C (dose: 50.0 mg/kg/injection, schedule: Q01DX001 (ip), vehicle: saline with Tween-80) is reported as 99 % of control, the T/C [8] is reported as 105 % of control and the T/C [9] is reported as 99 % of control.
For `CCCCCCNC(=O)Oc1cccc(NC(=O)CC)c1`, the T/C (dose: 100.0 mg/kg/injection, schedule: Q04DX003 (ip), vehicle: saline with Tween-80) was 104 % of control, the T/C (dose: 200.0 mg/kg/injection, schedule: Q04DX003 (ip), vehicle: saline with Tween-80) was 88 % of control and the T/C (dose: 400.0 mg/kg/injection, schedule: Q04DX003 (ip), vehicle: saline with Tween-80) was 102 % of control.
